Assay results as given in patent publication US9708314B2, “Heterocyclic amide compound” (NISSAN CHEMICAL INDUSTRIES, LTD., priority 2013, dated 2017).

Key:
Format in all cases: in vivo
[1] = tested on: transplanted Oryza sativa; experiment: Test Example 1: effect on crop, application before weed generation in submerged conditions; conditions: Seventeenth Table; for a: transplanted Oryza sativa (effect on crop grade): Application herbicide amount 320 g/ha; for a (transplanted Oryza sativa) effect on crop grade: application herbicide amount 320 g/ha
How it was run: (§1)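 Water-diluted emulsion formulation is applied onto flood water (4 cm deep) covering alluvial soil on the day weed seeds are sown, after transplanting 2.5 leaf stage rice. Rates are expressed per hectare. Injury or control is graded 0–5 three weeks later.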

[2] = tested on: directly sowed Oryza sativa; experiment: Test Example 3: effect on crop by application to foliage (Wagner pot, water depth 0.1-0.5 cm); conditions: Nineteenth Table; application to foliage; application herbicide amount 320 g/ha
How it was run: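 Plants are raised 14 days from seed in flooded-surface Wagner pots at 25–30 °C, sprayed on stems and leaves with diluted emulsion at a predetermined rate, and rated three weeks on using a 0–5 herbicidal-ratio scale (5 ≥90%).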

[3] = tested on: Scirpus juncoides; experiment: Test Example 1: herbicidal activity, application before weed generation in submerged conditions; conditions: Seventeenth Table; for B: Scirpus juncoides (herbicidal effect grade): Application herbicide amount 320 g/ha; for B (Scirpus juncoides) herbicidal ratio grade: application herbicide amount 320 g/ha
How it was run: as §1

[4] = tested on: Echinochloa oryzacola Vasing.; experiment: as above; conditions: Seventeenth Table; for A: Echinochloa oryzicola Vasing. (herbicidal effect grade): Application herbicide amount 320 g/ha; for A (Echinochloa oryzicola Vasing.) herbicidal ratio grade: application herbicide amount 320 g/ha
How it was run: as §1

[5] = tested on: Monochoria vaginalis; experiment: as above; conditions: Seventeenth Table; for C: Monochoria vaginalis (herbicidal effect grade): Application herbicide amount 320 g/ha; for C (Monochoria vaginalis) herbicidal ratio grade: application herbicide amount 320 g/ha
How it was run: as §1

[6] = tested on: Scirpus juncoides; experiment: Test Example 2: herbicidal activity, application during weed generation in submerged conditions; conditions: Eighteenth Table; application herbicide amount 320 g/ha
How it was run: (§2)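 Seeds were sown together in alluvial soil kept under 4 cm of water and grown at 25 °C to 30 °C. Once plants reached the one- to two-leaf stage, the diluted emulsion was applied to the water surface at a predetermined g/ha amount, and effects were rated 0–5 after three weeks.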

[7] = tested on: Echinochloa oryzacola Vasing.; experiment: as above; conditions: Eighteenth Table; application herbicide amount 320 g/ha
How it was run: as §2

[8] = tested on: Monochoria vaginalis; experiment: as above; conditions: Eighteenth Table; application herbicide amount 320 g/ha
How it was run: as §2

| SMILES | a: transplanted Oryza sativa (effect on crop grade) [1] | b (effect on crop grade) [2] | B: Scirpus juncoides (herbicidal effect grade) [3] | A: Echinochloa oryzicola Vasing. (herbicidal effect grade) [4] | C: Monochoria vaginalis (herbicidal effect grade) [5] | B (Scirpus juncoides) herbicidal ratio grade [6] | A (Echinochloa oryzicola Vasing.) herbicidal ratio grade [7] | C (Monochoria vaginalis) herbicidal ratio grade [8] | a (transplanted Oryza sativa) effect on crop grade [1] | B (Scirpus juncoides) herbicidal ratio grade [3] | A (Echinochloa oryzicola Vasing.) herbicidal ratio grade [4] | C (Monochoria vaginalis) herbicidal ratio grade [5] |
| --- | --- | --- | --- | --- | --- | --- | --- | --- | --- | --- | --- | --- |
| CCC[S+]([O-])c1nnc2c(C(=O)Nc3nnnn3C)ccc(C(F)(F)F)n12 (stereo not shown) [2-069] | 5 (Herbicidal ratio of 90% or more (almost completely withered)) | 5 (Herbicidal ratio of 90% or more (almost completely withered)) | 5 (Herbicidal ratio of 90% or more (almost completely withered)) | 5 (Herbicidal ratio of 90% or more (almost completely withered)) | 5 (Herbicidal ratio of 90% or more (almost completely withered)) | 5 (Herbicidal ratio of 90% or more (almost completely withered)) | 5 (Herbicidal ratio of 90% or more (almost completely withered)) | 5 (Herbicidal ratio of 90% or more (almost completely withered)) |  |  |  |  |
| COc1ccc(CSc2nnc3c(C(=O)Nc4nnnn4C)ccc(C(F)(F)F)n23)cc1 [2-077] | 1 (Herbicidal ratio of 5% or more and less than 20%) | 0 (Herbicidal ratio of 5% or less (almost no effect)) | 3 (Herbicidal ratio of 40% or more and less than 70%) | 5 (Herbicidal ratio of 90% or more (almost completely withered)) | 3 (Herbicidal ratio of 40% or more and less than 70%) | 2 (Herbicidal ratio of 20% or more and less than 40%) | 2 (Herbicidal ratio of 20% or more and less than 40%) | 2 (Herbicidal ratio of 20% or more and less than 40%) |  |  |  |  |
| C=CCN(C)c1nnc2c(C(=O)Nc3nnnn3C)ccc(C(F)(F)F)n12 [2-100] |  | 3 (Herbicidal ratio of 40% or more and less than 70%) |  |  |  | 3 (Herbicidal ratio of 40% or more and less than 70%) | 4 (Herbicidal ratio of 70% or more and less than 90%) | 4 (Herbicidal ratio of 70% or more and less than 90%) | 3 (Herbicidal ratio of 40% or more and less than 70%) | 5 (Herbicidal ratio of 90% or more (almost completely withered)) | 5 (Herbicidal ratio of 90% or more (almost completely withered)) | 5 (Herbicidal ratio of 90% or more (almost completely withered)) |
| CC(C)c1nnc2c(C(=O)Nc3nnnn3-c3ccccc3)ccc(C(F)(F)F)n12 [2-073] | 2 (Herbicidal ratio of 20% or more and less than 40%) | 2 (Herbicidal ratio of 20% or more and less than 40%) | 3 (Herbicidal ratio of 40% or more and less than 70%) | 4 (Herbicidal ratio of 70% or more and less than 90%) | 4 (Herbicidal ratio of 70% or more and less than 90%) | 2 (Herbicidal ratio of 20% or more and less than 40%) | 2 (Herbicidal ratio of 20% or more and less than 40%) | 3 (Herbicidal ratio of 40% or more and less than 70%) |  |  |  |  |
| C=CCN(C)c1nnc2c(C(=O)Nc3nnco3)ccc(C(F)(F)F)n12 [1-172] | 1 (Herbicidal ratio of 5% or more and less than 20%) | 3 (Herbicidal ratio of 40% or more and less than 70%) | 4 (Herbicidal ratio of 70% or more and less than 90%) | 5 (Herbicidal ratio of 90% or more (almost completely withered)) | 3 (Herbicidal ratio of 40% or more and less than 70%) | 4 (Herbicidal ratio of 70% or more and less than 90%) | 3 (Herbicidal ratio of 40% or more and less than 70%) | 3 (Herbicidal ratio of 40% or more and less than 70%) |  |  |  |  |
| Cn1nnnc1NC(=O)c1ccc(C(F)(F)F)n2c(=O)n(C)nc12 [6-002] |  | 0 (Herbicidal ratio of 5% or less (almost no effect)) |  |  |  | 2 (Herbicidal ratio of 20% or more and less than 40%) | 3 (Herbicidal ratio of 40% or more and less than 70%) | 3 (Herbicidal ratio of 40% or more and less than 70%) | 0 (Herbicidal ratio of 5% or less (almost no effect)) | 3 (Herbicidal ratio of 40% or more and less than 70%) | 4 (Herbicidal ratio of 70% or more and less than 90%) | 2 (Herbicidal ratio of 20% or more and less than 40%) |
| CC(=O)OCc1nnc2c(C(=O)Nc3nnnn3C)ccc(C(F)(F)F)n12 [2-107] |  | 4 (Herbicidal ratio of 70% or more and less than 90%) |  |  |  | 1 (Herbicidal ratio of 5% or more and less than 20%) | 2 (Herbicidal ratio of 20% or more and less than 40%) | 2 (Herbicidal ratio of 20% or more and less than 40%) | 1 (Herbicidal ratio of 5% or more and less than 20%) | 3 (Herbicidal ratio of 40% or more and less than 70%) | 2 (Herbicidal ratio of 20% or more and less than 40%) | 2 (Herbicidal ratio of 20% or more and less than 40%) |
| Cc1cc(-c2nnc3c(C(=O)Nc4nnnn4C)ccc(C(F)(F)F)n23)n(C)n1 [2-062] | 5 (Herbicidal ratio of 90% or more (almost completely withered)) | 5 (Herbicidal ratio of 90% or more (almost completely withered)) | 5 (Herbicidal ratio of 90% or more (almost completely withered)) | 5 (Herbicidal ratio of 90% or more (almost completely withered)) | 5 (Herbicidal ratio of 90% or more (almost completely withered)) | 4 (Herbicidal ratio of 70% or more and less than 90%) | 5 (Herbicidal ratio of 90% or more (almost completely withered)) | 5 (Herbicidal ratio of 90% or more (almost completely withered)) |  |  |  |  |
